Laboratory results: ChEMBL document CHEMBL1157850, “Synthesis, spectral characterization and bioassay of 3,3'-(1,4-phenylene)-bis[2-alkoxycarbonyl-alkyl)-2-thio-benzoxa-phosphinines]” (Eur J Med Chem, 2010)
≈ marks a conversion by molar mass, not a printed value. Calls of active or inactive are those of the source. The rule behind the calls is not given here.

How the values were obtained:
Rattus norvegicus [1] = organism: Rattus norvegicus; test: Antioxidant activity in Wistar albino rat assessed as inhibition of catalase activity; assay type: functional, organism-based
Rattus norvegicus [2] = organism: Rattus norvegicus; test: Antioxidant activity in Wistar albino rat assessed as inhibition of lipid peroxidation; assay type: functional, organism-based
Rattus norvegicus [3] = organism: Rattus norvegicus; test: Antioxidant activity in Wistar albino rat assessed as reduced glutathione activity; assay type: functional, organism-based
Rattus norvegicus [4] = organism: Rattus norvegicus; test: Antioxidant activity in Wistar albino rat assessed as inhibition of superoxide dismutase activity; assay type: functional, organism-based
Rattus norvegicus [5] = organism: Rattus norvegicus; test: Antioxidant activity in Wistar albino rat assessed as lipid peroxidation level; assay type: functional, organism-based
Rattus norvegicus [6] = organism: Rattus norvegicus; test: Antioxidant activity in Wistar albino rat assessed as reduced glutathione level; assay type: functional
Rattus norvegicus [7] = organism: Rattus norvegicus; test: Antioxidant activity in Wistar albino rat assessed as superoxide dismutase level; assay type: functional
Rattus norvegicus [8] = organism: Rattus norvegicus; test: Antioxidant activity in Wistar albino rat assessed as catalase level; assay type: functional
[9] = Rattus norvegicus, Wistar albino, read-out: EC50

EC50 (Rattus norvegicus [1]; [9]) [µg/mL] | EC50 (Rattus norvegicus [2]; [9]) [µg/mL] | EC50 (Rattus norvegicus [3]; [9]) [µg/mL] | EC50 (Rattus norvegicus [4]; [9]) [µg/mL] | EC50 (Rattus norvegicus [1]) [µg/mL] | EC50 (Rattus norvegicus [2]) [µg/mL] | EC50 (Rattus norvegicus [3]) [µg/mL] | EC50 (Rattus norvegicus [4]) [µg/mL] | Molecule | Activity (Rattus norvegicus [5]) [µg/mL] | Activity (Rattus norvegicus [6]) [µg/mL] | Activity (Rattus norvegicus [7]) | Activity (Rattus norvegicus [8]) [µg/mL]
1.37 (≈ 7.78 µM) | 1.02 (≈ 5.79 µM) | 0.98 (≈ 5.56 µM) | 0.99 (≈ 5.62 µM) |  |  |  |  | O=C1O[C@H]([C@@H](O)CO)C(O)=C1O [ASCORBIC ACID] | 88.1 | 31.34 | inactive | 385.46
2.2 (≈ 2.75 µM) | 2.1 (≈ 2.63 µM) | 2.05 (≈ 2.57 µM) | 1.98 (≈ 2.48 µM) |  |  |  |  | COC(=O)C(Cc1ccccc1)NP1(=S)Oc2ccccc2CN1c1ccc(N2Cc3ccccc3OP2(=S)NC(Cc2ccccc2)C(=O)OC)cc1 (centres undefined) | 72.9 | 4.21 | 29.42 µg/mL | 279.43
4.89 (≈ 6.96 µM) | 4.1 (≈ 5.83 µM) | 3.05 (≈ 4.34 µM) | 3.45 (≈ 4.91 µM) |  |  |  |  | COC(=O)C(NP1(=S)Oc2ccccc2CN1c1ccc(N2Cc3ccccc3OP2(=S)NC(C(=O)OC)C(C)C)cc1)C(C)C (centres undefined) | 72.3 | 4.73 | 27.86 µg/mL | 277.59
3.23 (≈ 4.42 µM) | 2.59 (≈ 3.54 µM) | 2.5 (≈ 3.42 µM) | 2.33 (≈ 3.19 µM) |  |  |  |  | CCCC(NP1(=S)Oc2ccccc2CN1c1ccc(N2Cc3ccccc3OP2(=S)NC(CCC)C(=O)OCC)cc1)C(=O)OCC (centres undefined) | 70.2 | 4.23 | 28.55 µg/mL | 273.32
1.68 (≈ 2.04 µM) | 1.56 (≈ 1.9 µM) | 1.49 (≈ 1.81 µM) | 1.55 (≈ 1.88 µM) |  |  |  |  | CCOC(=O)C1c2ccccc2CN1P1(=S)Oc2ccccc2CN1c1ccc(N2Cc3ccccc3OP2(=S)N2Cc3ccccc3C2C(=O)OCC)cc1 (centres undefined) | 75.7 | 5.77 | 30.59 µg/mL | 285.58
 |  |  |  | 1.48 | 1.22 | 0.99 | 1.03 | VITAMIN E [listing 1 of 2 here] |  |  |  | 
 |  |  |  |  |  |  |  | VITAMIN E [listing 2 of 2 here] | 82.8 | 43.6 | 32.3 µg/mL | 403
3.98 (≈ 5.66 µM) | 2.91 (≈ 4.14 µM) | 2.66 (≈ 3.78 µM) | 2.31 (≈ 3.29 µM) |  |  |  |  | CCCC(NP1(=S)Oc2ccccc2CN1c1ccc(N2Cc3ccccc3OP2(=S)NC(CCC)C(=O)OC)cc1)C(=O)OC (centres undefined) | 68.2 | 5.02 | 27.8 µg/mL | 265.43
3.38 (≈ 5.01 µM) | 3.1 (≈ 4.59 µM) | 2.68 (≈ 3.97 µM) | 2.98 (≈ 4.42 µM) |  |  |  |  | CCOC(=O)C(C)NP1(=S)Oc2ccccc2CN1c1ccc(N2Cc3ccccc3OP2(=S)NC(C)C(=O)OCC)cc1 (centres undefined) | 68.9 | 4.56 | 28.14 µg/mL | 270.32
1.75 (≈ 2.25 µM) | 1.56 (≈ 2 µM) | 1.45 (≈ 1.86 µM) | 1.4 (≈ 1.8 µM) |  |  |  |  | COC(=O)C(Cc1c[nH]cn1)NP1(=S)Oc2ccccc2CN1c1ccc(N2Cc3ccccc3OP2(=S)NC(Cc2c[nH]cn2)C(=O)OC)cc1 (centres undefined) | 77.2 | 3.66 | 31.55 µg/mL | 282.28
6.05 (≈ 18.9 µM) | 5.02 (≈ 15.7 µM) | 5.42 (≈ 16.9 µM) | 4.58 (≈ 14.3 µM) |  |  |  |  | Oc1ccccc1CNc1ccc(NCc2ccccc2O)cc1 | 70.7 | 4.8 | 26.27 µg/mL | 262.55
2.98 (≈ 3.73 µM) | 2.57 (≈ 3.22 µM) | 2.15 (≈ 2.69 µM) | 2.42 (≈ 3.03 µM) |  |  |  |  | CCOC(=O)C(NP1(=S)Oc2ccccc2CN1c1ccc(N2Cc3ccccc3OP2(=S)NC(C(=O)OCC)c2ccccc2)cc1)c1ccccc1 (centres undefined) | 70.5 | 4.12 | 29.31 µg/mL | 270.32
5.28 (≈ 8.16 µM) | 4.25 (≈ 6.57 µM) | 3.5 (≈ 5.41 µM) | 3.56 (≈ 5.51 µM) |  |  |  |  | COC(=O)C(C)NP1(=S)Oc2ccccc2CN1c1ccc(N2Cc3ccccc3OP2(=S)NC(C)C(=O)OC)cc1 (centres undefined) | 72.2 | 3.56 | 27.02 µg/mL | 271.27
1.98 (≈ 2.26 µM) | 1.82 (≈ 2.08 µM) | 1.45 (≈ 1.65 µM) | 1.39 (≈ 1.59 µM) |  |  |  |  | COC(=O)C(Cc1c[nH]c2ccccc12)NP1(=S)Oc2ccccc2CN1c1ccc(N2Cc3ccccc3OP2(=S)NC(Cc2c[nH]c3ccccc23)C(=O)OC)cc1 (centres undefined) | 76.2 | 5.84 | 30.29 µg/mL | 280.48
